Experimental data: patent publication US20260232657A1, “MELANOCORTIN SUBTYPE-2 RECEPTOR (MC2R) ANTAGONIST FOR THE TREATMENT OF ACTH-DEPENDENT CUSHING'S SYNDROME” (CRINETICS PHARMACEUTICALS, INC., priority 2023, published 2026)

Assays:
5-HT1B receptor = 5-HT1B receptor (Homo sapiens, UniProt P28222); assay: Screen for potential off-target activities; assay type: biochemical
CYP2D6 = CYP2D6 (Homo sapiens, UniProt P10635); assay: CYP involvement in metabolic clearance; assay type: in vitro ADME
Text: (§1) In vitro studies evaluated the metabolism of Compound 1 in plasma, liver microsomes, and/or 9000 g supernatant fraction of the liver homogenate (liver S9) from various species (including human).

CYP2C8 = target: T1, CYP2C8 (Homo sapiens, UniProt P10632); assay: CYP involvement in metabolic clearance; assay type: in vitro ADME
T1 sequence (P10632 1-490): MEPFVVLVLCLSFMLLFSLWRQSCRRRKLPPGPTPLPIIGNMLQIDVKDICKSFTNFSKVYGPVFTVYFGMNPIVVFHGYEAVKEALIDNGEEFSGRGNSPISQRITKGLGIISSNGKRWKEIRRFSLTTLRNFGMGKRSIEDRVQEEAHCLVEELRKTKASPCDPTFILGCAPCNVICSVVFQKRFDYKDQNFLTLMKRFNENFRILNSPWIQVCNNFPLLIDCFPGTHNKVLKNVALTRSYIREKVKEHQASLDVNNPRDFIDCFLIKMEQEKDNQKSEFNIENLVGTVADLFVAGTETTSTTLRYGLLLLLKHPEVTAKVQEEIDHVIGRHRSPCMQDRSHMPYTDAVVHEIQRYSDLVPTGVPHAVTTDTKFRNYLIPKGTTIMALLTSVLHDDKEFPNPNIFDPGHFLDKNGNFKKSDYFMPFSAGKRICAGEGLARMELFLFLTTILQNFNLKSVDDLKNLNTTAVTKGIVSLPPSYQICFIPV
Text: as §1

CYP3A4 = CYP3A4 (Homo sapiens, UniProt P08684); assay: CYP involvement in metabolic clearance; assay type: in vitro ADME
Sequence of CYP3A4 (P08684 whole entry): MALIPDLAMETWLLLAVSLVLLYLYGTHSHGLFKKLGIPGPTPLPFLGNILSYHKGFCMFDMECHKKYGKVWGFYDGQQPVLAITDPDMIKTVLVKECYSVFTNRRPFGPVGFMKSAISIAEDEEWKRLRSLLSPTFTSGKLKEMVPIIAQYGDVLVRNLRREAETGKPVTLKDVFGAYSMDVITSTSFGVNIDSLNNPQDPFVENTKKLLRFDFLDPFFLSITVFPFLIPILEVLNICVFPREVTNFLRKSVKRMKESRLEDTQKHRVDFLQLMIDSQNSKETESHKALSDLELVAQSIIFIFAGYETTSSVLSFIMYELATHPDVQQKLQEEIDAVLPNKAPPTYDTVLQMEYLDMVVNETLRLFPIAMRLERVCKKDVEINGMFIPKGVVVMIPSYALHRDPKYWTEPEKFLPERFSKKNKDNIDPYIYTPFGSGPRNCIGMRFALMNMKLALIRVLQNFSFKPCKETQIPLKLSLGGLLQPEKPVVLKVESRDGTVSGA
Text: as §1

[1] = Previous study in healthy volunteers; assay type: in vivo, human
Text: It has therefore been identified as an AESI in this study and may lead to dose limiting toxicity.

corticosterone [2] = assay: ACTH excess model: rats given exogenous ACTH (1-24) via subcutaneous osmotic pump over 7 days; assay type: in vivo, rat; conditions: ACTH (1-24) osmotic pump, daily oral doses
Experimental: (§2) Disease models mimicking states of ACTH excess and hypercortisolism included rats administered exogenous ACTH (1-24) via subcutaneous osmotic pump over 7 days and mice implanted with ACTH-secreting corticotroph AtT-20 tumor cells; animals received daily oral doses of placebo or Compound 1. […] However, six days after discontinuation of the highest dose of Compound 1 (75 mg/kg for 15 days), Ang-II stimulated aldosterone was suppressed, but sodium and potassium levels were normal.

[3] = In vitro and in vivo genotoxicity studies; conditions: in vitro and in vivo battery
Experimental: (§3) The overall nonclinical safety of Compound 1 was assessed in 28-day and 3-month repeat dose general toxicity studies in rat and dog and in a battery of in vitro and in vivo genotoxicity and safety pharmacology studies.

aldosterone = assay: ACTH- and Angiotensin-II-stimulated aldosterone in vivo
Experimental: as §2

MC2R [4] = target: T2, MC2R (Homo sapiens, UniProt Q01718); assay: ACTH-mediated G-protein activation and cAMP production; assay type: biochemical
T2 sequence (Q01718 whole entry): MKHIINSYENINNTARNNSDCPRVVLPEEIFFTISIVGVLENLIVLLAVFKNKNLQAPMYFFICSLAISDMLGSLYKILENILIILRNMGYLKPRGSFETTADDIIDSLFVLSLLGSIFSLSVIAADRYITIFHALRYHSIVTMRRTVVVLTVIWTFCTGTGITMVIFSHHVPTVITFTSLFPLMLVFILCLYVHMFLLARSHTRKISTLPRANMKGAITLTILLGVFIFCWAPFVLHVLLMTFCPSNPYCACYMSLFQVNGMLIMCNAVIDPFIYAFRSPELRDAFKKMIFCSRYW
T2 sequence (Q8TCY5 whole entry partner): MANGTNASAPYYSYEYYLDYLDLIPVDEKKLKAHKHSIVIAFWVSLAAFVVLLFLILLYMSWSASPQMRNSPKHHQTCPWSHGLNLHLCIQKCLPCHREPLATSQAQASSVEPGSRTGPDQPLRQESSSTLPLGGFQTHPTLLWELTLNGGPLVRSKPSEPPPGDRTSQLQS

[5] = Repeat dose general toxicity study in rat; assay type: in vivo
Experimental: as §3

[6] = tested on: corticosterone secretion after ACTH (1-24); assay: ACTH (1-24) challenge, corticosterone secretion in rats; assay type: in vivo, rat
[7] = In vitro metabolism in plasma, liver microsomes and liver S9; assay type: in vitro ADME, various species (including human); conditions: liver microsomes, liver S9
Text: as §1

[8] = tested on: other human melanocortin receptor subtypes; assay: Selectivity over other melanocortin receptor subtypes; assay type: binding; conditions: MC2R vs other subtypes
corticosterone [9] = assay: ACTH excess model: mice implanted with ACTH-secreting corticotroph AtT-20 tumor cells; assay type: in vivo, mouse; conditions: mice with AtT-20 tumor cells, daily oral doses
Experimental: as §2

[10] = Safety pharmacology studies
Experimental: as §3

MC2R [11] = target: T2, MC2R; assay: MC2R antagonist affinity / ACTH binding to the receptor
[12] = Effect of food on absorption; assay type: in vivo, human; conditions: oral tablet
Experimental: Participants will receive Compound 1 at the appropriate dose for their cohort as a single daily dose for 10 days at approximately 8 am. Tablets will be taken orally with 240 mL of water.

[13] = Repeat dose general toxicity study in dog; assay type: in vivo
Experimental: as §3

[14] = six days after discontinuation of 75 mg/kg for 15 days

Sequence of 5-HT1B receptor (P28222 whole entry): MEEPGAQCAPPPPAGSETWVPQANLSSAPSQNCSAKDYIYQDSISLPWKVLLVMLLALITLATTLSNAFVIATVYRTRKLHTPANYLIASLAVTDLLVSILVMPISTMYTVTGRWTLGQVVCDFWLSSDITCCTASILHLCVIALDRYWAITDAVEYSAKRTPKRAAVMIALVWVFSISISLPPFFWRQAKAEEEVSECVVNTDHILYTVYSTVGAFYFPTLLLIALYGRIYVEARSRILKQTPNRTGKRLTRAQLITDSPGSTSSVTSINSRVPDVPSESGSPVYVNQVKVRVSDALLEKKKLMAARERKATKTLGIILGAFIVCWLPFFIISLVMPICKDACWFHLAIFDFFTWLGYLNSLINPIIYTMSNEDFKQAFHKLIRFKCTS
Sequence of CYP2D6 (P10635 whole entry): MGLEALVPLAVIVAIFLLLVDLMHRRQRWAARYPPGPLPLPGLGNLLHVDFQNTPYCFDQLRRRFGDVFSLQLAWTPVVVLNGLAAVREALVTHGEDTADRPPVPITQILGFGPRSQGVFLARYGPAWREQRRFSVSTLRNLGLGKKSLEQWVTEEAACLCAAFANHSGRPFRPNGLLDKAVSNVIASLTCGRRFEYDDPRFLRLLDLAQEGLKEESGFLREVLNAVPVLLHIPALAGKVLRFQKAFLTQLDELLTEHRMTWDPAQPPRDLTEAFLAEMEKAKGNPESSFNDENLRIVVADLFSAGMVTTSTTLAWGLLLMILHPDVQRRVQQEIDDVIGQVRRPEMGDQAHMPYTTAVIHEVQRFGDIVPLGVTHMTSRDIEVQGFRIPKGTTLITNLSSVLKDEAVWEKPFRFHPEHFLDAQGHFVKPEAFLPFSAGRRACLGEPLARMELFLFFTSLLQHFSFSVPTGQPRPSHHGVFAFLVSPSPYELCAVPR

CCOc1ccccc1-c1ccc(N2CCN(C(=O)C3(C(F)(F)F)CCC3)C[C@H]2CC)c(C(=O)N[C@@H]2CN3CCC2CC3)n1 [Compound 1, 6-(2-ethoxyphenyl)-3-((R)-2-ethyl-4-(1-(trifluoromethyl)cyclobutane-1-carbonyl)piperazin-1-yl)-N—((S)-quinuclidin-3-yl) picolinamide]
selectivity for hMC2R over 5-HT1B (5-HT1B receptor): more than 2200 fold | agonist activity against the 5-HT1B receptor (5-HT1B receptor; off-target screen): no agonist activity | antagonist activity against the 5-HT1B receptor (5-HT1B receptor; off-target screen): weak antagonist | role of CYP2D6 in catalyzing oxidative metabolism (CYP2D6): may also have a minor contribution | role of CYP2C8 in catalyzing oxidative metabolism (CYP2C8): may also have a minor contribution | role of CYP3A4 in catalyzing oxidative metabolism (CYP3A4): plays a key role | adverse event observed during treatment [1]: Glucocorticoid deficiency was observed | adrenal gland effect (corticosterone [2]): dose-dependent adrenal gland atrophy | decrease of corticosterone values on Days 1 and 7 (maximum) (corticosterone [2]): ≤ 92% | genotoxic risk [3]: No findings indicating significant genotoxic risk | Angiotensin-II stimulation of aldosterone (aldosterone; during treatment): did not affect | ACTH-stimulated aldosterone levels (aldosterone; in vivo): reduced | Ang-II stimulated aldosterone after discontinuation (aldosterone; [14]): suppressed | sodium and potassium levels after discontinuation (aldosterone; [14]): normal | ACTH-mediated G-protein activation and subsequent cAMP production (MC2R [4]): potently blocked | target organ toxicity finding ([5]; 28-day rat study): foamy macrophages in the lungs | consistency of rat lung findings with drug-induced PLD ([5]; rat lung): not to be consistent with drug-induced PLD | corticosterone secretion after 1 μg/kg ACTH (1-24) ([6]; oral, 3 and 10 mg/kg, male and female rats): dose-dependently suppressed | corticosterone after ACTH administration at 1, 4, 24, and 48 hours after a single dose ([6]; single dose, time course): dose-dependent suppression of corticosterone at 1 and 4 hours only | primary metabolic pathways involved in metabolic clearance [7]: oxidative metabolism, resulting in formation of hydroxylated and desmethyl metabolites | selectivity over other human melanocortin receptor subtypes [8]: > 2900 fold | adrenal gland effect (corticosterone [9]): dose-dependent adrenal gland atrophy | decrease of corticosterone values on Days 1 and 7 (maximum) (corticosterone [9]): ≤ 92% | adverse effects on core organ systems (cardiovascular, central nervous, respiratory) [10]: No findings | ACTH binding to the receptor (MC2R [11]): potently blocked | Ki (MC2R [11]): < 10 nM | effect of food on absorption [12]: minimal effect of food on absorption | target organ toxicity finding ([13]; 3-month dog study): adrenal and liver atrophy | adrenal gland and liver findings with hydrocortisone supplementation ([13]; dog): mitigated with hydrocortisone supplementation
